Columns and labels:
A549 = experiment: In vitro cytotoxicity in human tumor lung carcinoma A-549 cell lines; assay type: functional
MCF7 = experiment: In vitro cytotoxicity in human tumor breast carcinoma MCF-7 cell lines; assay type: functional
Malme-3M = experiment: In vitro cytotoxicity in human tumor melanoma MALME-3M cell lines; assay type: functional
SK-MEL-5 = experiment: In vitro cytotoxicity in human tumor melanoma SK-MEL5c ell lines; assay type: functional
HT-29 = experiment: In vitro cytotoxicity in human tumor colon adenocarcinoma HT-29 cell lines; assay type: functional
[1] = (§1) Ratio of LC50(NRKE) to LC50(N/4.2-NRK ) expressed as differential induces(DI) was determined; assay type: functional
Mus musculus [2] = experiment: In vivo inhibitory activity against HT-29 colon cells at maximally tolerated dose(MTD) of 100 mg/kg in mice; assay type: functional
[3] = Total number of toxic deaths of mice to the total number of mice tested was determined at a dose of 33 mg/kg; 0/8; assay type: ADME, organism-based; parameters: dose 33 mg/kg; settings: mouse, in vivo
[4] = In vitro toxicity against ras transformed K/1-NRK cell lines was determined; settings: rat, ras transformed K/1-NRK cells; read-out: LC50 (the source's name)
[5] = In vitro toxicity against ras transformed NRKE cell lines was determined; assay type: cell-based; settings: rat, NRKE cells; read-out: LC50 (the source's name)
Mus musculus [6] = experiment: In vivo inhibitory activity against HT-29 colon cells at maximally tolerated dose(MTD) of 33 mg/kg in mice; assay type: functional
[7] = (§2) Ratio of LC50(NRKE) to LC50(H/1.2-NRK) expressed as differential induces(DI) was determined; assay type: functional
[8] = In vitro toxicity against ras transformed H/1.2-NRK cell lines was determined; settings: rat, ras transformed H/1.2-NRK cells; read-out: LC50 (the source's name)
[9] = In vitro toxicity against ras transformed 3LL cell lines was determined; assay type: cell-based; settings: ras transformed 3LL cells; read-out: LC50 (the source's name)
[10] = Total number of toxic deaths of mice to the total number of mice tested was determined at a dose of 100 mg/kg; 1/8; assay type: ADME, organism-based; parameters: dose 100 mg/kg; settings: mouse, in vivo
[11] = Ratio of LC50(NRKE) to LC50(K/1-NRK) expressed as differential induces(DI) was determined; assay type: functional
[12] = Ratio of LC50(NRKE) to LC50(3LL) expressed as differential induces(DI) was determined; assay type: functional
[13] = In vitro toxicity against ras transformed N/4.2-NRK cell lines was determined; settings: rat, ras transformed N/4.2-NRK cells; read-out: LC50 (the source's name)
[14] = Total number of toxic deaths of mice to the total number of mice tested was determined at a dose of 3 mg/kg; 0/8; assay type: ADME, organism-based; parameters: dose 3 mg/kg; settings: mouse, in vivo
Mus musculus [15] = experiment: In vivo inhibitory activity against HT-29 colon cells at maximally tolerated dose(MTD) of 3 mg/kg in mice; assay type: functional
[16] = Total number of toxic deaths of mice to the total number of mice tested was determined at a dose of 10 mg/kg; 0/8; assay type: ADME, organism-based; parameters: dose 10 mg/kg; settings: mouse, in vivo
Mus musculus [17] = experiment: In vivo inhibitory activity against HT-29 colon cells at maximally tolerated dose(MTD) of 10 mg/kg in mice; assay type: functional
Mus musculus [18] = experiment: In vivo inhibitory activity against HT-29 colon cells at maximally tolerated dose(MTD) of 11 mg/kg in mice; assay type: functional
[19] = as §2; assay type: ADME; settings: rat, NRKE cells and H/1.2-NRK cells
[20] = Total number of toxic deaths of mice to the total number of mice tested was determined at a dose of 11 mg/kg; 0/8; assay type: ADME, organism-based; parameters: dose 11 mg/kg; settings: mouse, in vivo
[21] = as §1; assay type: ADME; settings: rat, NRKE cells and N/4.2-NRK cells

| SMILES | ED50 (A549) | ED50 (MCF7) | ED50 (Malme-3M) | ED50 (SK-MEL-5) | CC50 [4] | CC50 [5] | CC50 [8] | CC50 [9] | CC50 [13] | also measured |
| --- | --- | --- | --- | --- | --- | --- | --- | --- | --- | --- |
| CC(C)(C)C1CCC(O)C(N)C1 (stereo not given) | 0.00016 M l-1 | 0.00026 M l-1 | > 100000 nM | 0.00045 M l-1 | – | – | – | – | – | ED50 (HT-29): > 100000 nM |
| C=C(CCl)S(C)(=O)=O | 1.9e-05 M l-1 | 6.5e-06 M l-1 | 6.5e-06 M l-1 | 3.2e-06 M l-1 | – | – | – | – | – | ED50 (HT-29): 2.2e-06 M l-1 |
| C=C(CNC1CC(C(C)(C)C)CCC1O)S(C)(=O)=O (stereo not given) | 6.7e-07 M l-1 | 4.7e-07 M l-1 | 6e-07 M l-1 | 1.9e-07 M l-1 | – | – | – | – | – | – |
| C=C(CN1C(=O)OC2CCC(C(C)(C)C)CC21)S(C)(=O)=O (stereo not given) | 2.9e-05 M l-1 | 2.7e-06 M l-1 | 1.1e-05 M l-1 | 1.3e-06 M l-1 | 2600 nM | 4400 nM | 4700 nM | 3100 nM | 5000 nM | Ratio [1]: 0.9; inhibition in vivo at 100 mg/kg (Mus musculus [2]): 0%; Toxic deaths [3]: 0; inhibition in vivo at 33 mg/kg (Mus musculus [6]): 0%; Ratio [7]: 0.9; Toxic deaths [10]: 1; Ratio [11]: 1.7; Ratio [12]: 1.4 |
| C=C(CN(C)C1CC(C(C)(C)C)CCC1O)S(C)(=O)=O (stereo not given) | 1.4e-05 M l-1 | 1.7e-07 M l-1 | 4.8e-07 M l-1 | 5.6e-07 M l-1 | – | – | – | – | – | – |
| C=C(CN1COC2CCC(C(C)(C)C)CC21)S(C)(=O)=O (stereo not given) | 1.2e-06 M l-1 | 2.4e-07 M l-1 | 1e-06 M l-1 | 9.6e-07 M l-1 | 500 nM | 1400 nM | 2100 nM | 500 nM | 1800 nM | Toxic deaths [14]: 0; Ratio [1]: 0.8; inhibition in vivo at 3 mg/kg (Mus musculus [15]): 0%; Toxic deaths [16]: 0; Ratio [7]: 0.6; inhibition in vivo at 10 mg/kg (Mus musculus [17]): 0% |
| C=C(CN(CC(=C)S(C)(=O)=O)C1CC(C(C)(C)C)CCC1O)S(C)(=O)=O (stereo not given) | 1.3e-06 M l-1 | 3.3e-07 M l-1 | 4.2e-06 M l-1 | 4.6e-07 M l-1 | 600 nM | 2400 nM | 2500 nM | 800 nM | 1400 nM | Toxic deaths [3]: 0; inhibition in vivo at 33 mg/kg (Mus musculus [6]): 0%; inhibition in vivo at 11 mg/kg (Mus musculus [18]): 0%; selectivity ratio [19]: 1; Toxic deaths [20]: 0; selectivity ratio [21]: 0.6 |
